According to patent publication EP4722363A1, “RNAI AGENT FOR INHIBITING ANGPTL3 EXPRESSION AND USE THEREOF” (YUN HO BIO CO., LTD, priority 2023, dated 2024):

Tests used:
ANGPTL3 Protein [1] = assay: PHH free uptake, inhibition of ANGPTL3, ELISA of supernatant; assay type: cell-based; settings: primary human hepatocytes, 72 hours
Description: PHH cells were thawed and adjusted to a density of 6×10^5 cells/mL. Then, 10 µL of the compound from the dilution plate was added to the cell culture plate, resulting in final compound concentrations of 100, 40, 12.5, 5, and 2 nM. The cells were seeded into a 96-well plate at a density of 54,000 cells per well (90 µL/well), with a final culture volume of 100 µL per well. The cells were cultured in a 5% CO2 incubator at 37°C for 72 hours.
(§1) The supernatant from the PHH and PCH cultures from the previous steps was collected, transferred to a new 96-well V-bottom plate, and centrifuged. Human Angiopoietin-like 3 protein (hANGPTL3 protein; DANL30) ELISA test was performed according to the instructions of HANGPTL 3 protein Kit.
(§2) Data Analysis: Four Parameter Logistic method. This method constructs a standard curve by plotting, with the y-axis as the average absorbance of the standards and the x-axis as the concentration, drawing a best-fit curve through the points on the graph. The OD value of the log concentration of the sample's HANGPTL3 protein is determined against the best-fit line of the log concentration by regression analysis. [formula]
(§3) Sequences with good activity in Table 8 were evaluated for in vitro inhibitory activity against ANGPTL3 Protein in primary human hepatocytes (PHH) and primary cynomolgus monkey hepatocytes (PCH). Table 10. In Vitro Inhibitory Activity of MCPP-siRNAs against ANGPTL3 mRNA in PHH Cell Line

ANGPTL3 Protein [2] = assay: PCH free uptake, inhibition of ANGPTL3, ELISA of supernatant; assay type: cell-based; settings: primary cynomolgus monkey hepatocytes, 72 hours
Description: PCH cells were resuscitated using 10% FBS InvitroGRO™ HT Medium, and subsequently, the cell density was adjusted to 3×10^5 cells/mL using 10% FBS InvitroGRO™ CP Medium. Then, 10 µL of the compound from the dilution plate was added to the cell culture plate, resulting in final compound concentrations of 25, 5, and 1 nM. The cells were seeded into a 96-well plate at a density of 27,000 cells per well (90 µL/well), with a final culture volume of 100 µL per well. The cells were cultured in a 5% CO2 incubator at 37 °C for 72 hours.
as §1, §2, §3

| Substance | IC50 (ANGPTL3 Protein [1]) [nM] | Average Inhibition in PCH % (ANGPTL3 Protein [2]; 1nM) [%] | Average Inhibition in PCH % (ANGPTL3 Protein [2]; 5nM) [%] | Average Inhibition in PCH % (ANGPTL3 Protein [2]; 25nM) [%] |
| --- | --- | --- | --- | --- |
| 2008-035-002: GalNAc-conjugated modified ANGPTL3 siRNA, sense SEQ ID NO 37, antisense SEQ ID NO 28 (sense GAGAAGAACUACAUAUAAA; antisense UUUAUAUGUAGUUCUUCUCAG; GalNAc conjugated, chemically modified, pattern not given here) [Duplex 2008-035-002] | 2.23 | – | – | – |
| 2008-019-001: GalNAc-conjugated modified ANGPTL3 siRNA, sense SEQ ID NO 41, antisense SEQ ID NO 28 (sense GAGAAGAACUACAUAUAAA; antisense UUUAUAUGUAGUUCUUCUCAG; GalNAc conjugated, chemically modified, pattern not given here) [Duplex 2008-019-001] | 1.61 | 58.78 | 73.01 | 75.51 |
| 2002-034-001: GalNAc-conjugated modified ANGPTL3 siRNA, sense SEQ ID NO 38, antisense SEQ ID NO 13 (sense CAUAGUGAAGCAAUCUAAU; antisense AUUAGAUUGCUUCACUAUGGA; GalNAc conjugated, chemically modified, pattern not given here) [Duplex 2002-034-001] | 1.38 | 50.50 | 63.43 | 66.66 |
| 2002-018-002: GalNAc-conjugated modified ANGPTL3 siRNA, sense SEQ ID NO 34, antisense SEQ ID NO 13 (sense CAUAGUGAAGCAAUCUAAU; antisense AUUAGAUUGCUUCACUAUGGA; GalNAc conjugated, chemically modified, pattern not given here) [Duplex 2002-018-002] | 0.96 | – | – | – |
| 2002-033-002: GalNAc-conjugated modified ANGPTL3 siRNA, sense SEQ ID NO 33, antisense SEQ ID NO 12 (sense CAUAGUGAAGCAAUCUAAU; antisense AUUAGAUUGCUUCACUAUGGA; GalNAc conjugated, chemically modified, pattern not given here) [Duplex 2002-033-002] | 0.84 | – | – | – |
| 2002-050-L96: L96-conjugated comparator siRNA, sense SEQ ID NO 43, antisense SEQ ID NO 18 (sense CAUAGUGAAGCAAUCUAAU; antisense AUUAGAUUGCUUCACUAUGGA; L96 GalNAc conjugate, position not given here, modification pattern not given here) [Duplex 2002-050-L96, reference compound] | 2.6 | – | – | – |
| 2002-018-001: GalNAc-conjugated modified ANGPTL3 siRNA, sense SEQ ID NO 39, antisense SEQ ID NO 13 (sense CAUAGUGAAGCAAUCUAAU; antisense AUUAGAUUGCUUCACUAUGGA; GalNAc conjugated, chemically modified, pattern not given here) [Duplex 2002-018-001] | 1.9 | – | – | – |
| 2008-010-002: GalNAc-conjugated modified ANGPTL3 siRNA, sense SEQ ID NO 35, antisense SEQ ID NO 27 (sense GAGAAGAACUACAUAUAAA; antisense UUUAUAUGUAGUUCUUCUCAG; GalNAc conjugated, chemically modified, pattern not given here) [Duplex 2008-010-002] | 0.98 | – | – | – |
| 2008-018-002: GalNAc-conjugated modified ANGPTL3 siRNA, sense SEQ ID NO 36, antisense SEQ ID NO 27 (sense GAGAAGAACUACAUAUAAA; antisense UUUAUAUGUAGUUCUUCUCAG; GalNAc conjugated, chemically modified, pattern not given here) [Duplex 2008-018-002] | 0.96 | – | – | – |
